Measurements taken from ChEMBL document CHEMBL1201862, “PubChem BioAssay data set” (2004).
Active and inactive are the calls of the source. Bridge positions count the residues as written; N and C are the ends. Square brackets hold non-standard residues; d marks the D form. Peptide text beside a SMILES is read from it. * marks the point of attachment. X1 = CCC(C)C(N)C1=NC(C(=O)*)CS1; dOrn = NCCC[C@@H](N)C(=O)O

Legend:
[1] = molecular target: Voltage-gated inwardly rectifying potassium channel KCNH2 (Homo sapiens, UniProt Q12809); conditions: Potency;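 also: confirmatory quantitative high-throughput screen measuring inhibition of hERG channel activity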
Troponin, cardiac muscle = Troponin, cardiac muscle (Homo sapiens, UniProt P19429+P45379+P63316); assay: Fluorescence-based biochemical high throughput dose response assay for activators of the calcium sensitivity of cardiac Regulated Thin Filaments (RTF). [Related pubchem assays (depositor defined):AID493008, AID493018, AID504382, AID504383]; format: protein-complex assay
[2] = molecular target: T1, Lysine-specific demethylase 4C (Homo sapiens, UniProt Q9H3R0); assay: inhibition of JMJD2C H3K9me3 demethylation – biochemical, DELFIA europium, cherry-picked samples, dose response (AID 488835); format: functional
T1 sequence (Q9H3R0 whole entry): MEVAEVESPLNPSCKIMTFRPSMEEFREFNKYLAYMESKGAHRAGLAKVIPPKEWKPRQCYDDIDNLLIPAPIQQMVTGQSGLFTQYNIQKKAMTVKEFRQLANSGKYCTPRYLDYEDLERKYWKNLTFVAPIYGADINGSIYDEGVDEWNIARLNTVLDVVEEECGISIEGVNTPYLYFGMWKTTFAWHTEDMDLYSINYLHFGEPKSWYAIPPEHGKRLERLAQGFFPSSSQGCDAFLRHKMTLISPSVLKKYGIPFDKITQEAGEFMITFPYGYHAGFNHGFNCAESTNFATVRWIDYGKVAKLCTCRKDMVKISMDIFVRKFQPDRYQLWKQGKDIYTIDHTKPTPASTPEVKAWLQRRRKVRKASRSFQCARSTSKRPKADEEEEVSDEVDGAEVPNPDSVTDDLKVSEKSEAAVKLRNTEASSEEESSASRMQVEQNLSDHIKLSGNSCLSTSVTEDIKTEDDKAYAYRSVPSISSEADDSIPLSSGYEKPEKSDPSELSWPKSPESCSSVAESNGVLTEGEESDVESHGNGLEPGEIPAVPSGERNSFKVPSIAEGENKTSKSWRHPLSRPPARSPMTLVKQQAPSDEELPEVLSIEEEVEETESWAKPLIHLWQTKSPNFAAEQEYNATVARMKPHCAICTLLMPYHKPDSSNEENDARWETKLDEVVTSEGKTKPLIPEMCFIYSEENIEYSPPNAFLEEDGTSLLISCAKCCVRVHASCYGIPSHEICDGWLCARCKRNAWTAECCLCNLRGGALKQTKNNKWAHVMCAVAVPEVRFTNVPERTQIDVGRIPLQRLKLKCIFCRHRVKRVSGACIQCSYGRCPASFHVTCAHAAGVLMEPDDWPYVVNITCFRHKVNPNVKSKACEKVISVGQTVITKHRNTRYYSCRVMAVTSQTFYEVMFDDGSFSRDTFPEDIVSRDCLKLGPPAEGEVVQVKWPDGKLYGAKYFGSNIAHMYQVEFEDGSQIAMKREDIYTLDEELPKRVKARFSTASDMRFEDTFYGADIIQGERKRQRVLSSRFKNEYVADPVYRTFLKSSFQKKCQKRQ

[3] = molecular target: T2, Short transient receptor potential channel 4 (Mus musculus, UniProt Q9QUQ5); assay: calcium entry via TRPC4 opening agents – cell-based, HEK293 TRPC4/mu-opioid, Fluo-4 calcium, dose response (AID 434937); format: functional
T2 sequence (Q9QUQ5 whole entry): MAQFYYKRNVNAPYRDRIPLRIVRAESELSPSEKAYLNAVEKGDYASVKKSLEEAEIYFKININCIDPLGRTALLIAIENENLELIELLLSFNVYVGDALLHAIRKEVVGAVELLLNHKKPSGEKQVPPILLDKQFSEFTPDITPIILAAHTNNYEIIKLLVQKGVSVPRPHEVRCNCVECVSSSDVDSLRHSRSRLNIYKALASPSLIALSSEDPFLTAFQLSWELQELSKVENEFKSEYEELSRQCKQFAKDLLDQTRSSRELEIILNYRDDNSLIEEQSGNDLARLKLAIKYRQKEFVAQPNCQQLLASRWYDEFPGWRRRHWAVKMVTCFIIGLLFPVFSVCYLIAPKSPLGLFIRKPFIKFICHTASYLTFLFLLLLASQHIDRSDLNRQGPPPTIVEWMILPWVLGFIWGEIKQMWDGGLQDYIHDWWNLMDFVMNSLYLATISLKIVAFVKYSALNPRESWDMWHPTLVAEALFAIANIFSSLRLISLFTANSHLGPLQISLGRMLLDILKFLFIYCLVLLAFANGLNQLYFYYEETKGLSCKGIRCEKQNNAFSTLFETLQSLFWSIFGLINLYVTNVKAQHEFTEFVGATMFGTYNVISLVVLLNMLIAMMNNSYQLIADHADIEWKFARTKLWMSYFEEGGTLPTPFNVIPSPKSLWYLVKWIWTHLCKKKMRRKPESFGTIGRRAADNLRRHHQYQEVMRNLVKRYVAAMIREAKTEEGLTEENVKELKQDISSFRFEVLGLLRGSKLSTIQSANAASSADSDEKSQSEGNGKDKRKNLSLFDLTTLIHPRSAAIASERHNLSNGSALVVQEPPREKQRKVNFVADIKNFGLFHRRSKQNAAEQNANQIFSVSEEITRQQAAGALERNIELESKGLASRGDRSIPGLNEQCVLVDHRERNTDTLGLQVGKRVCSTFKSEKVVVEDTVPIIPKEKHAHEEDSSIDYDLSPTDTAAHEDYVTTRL

[4] = NIH3T3 cell viability loss – ATP luminescence, mouse fibroblasts, counter-screen, dose response (AID 2010); format: functional, cell-based;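 also: cells exposed to compound for about 90 hours before reading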
Fatty acid synthase [5] = molecular target: T3, Fatty acid synthase (Homo sapiens, UniProt P49327); assay: inhibition of human FAS-TE enzyme activity – biochemical, kinetic fluorescence intensity, dose response (AID 624326); format: functional;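 also: rate of fluorescence rise from hydrolysis of a fluorogenic O-methyl fluorescein ester substrate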
[6] = HEK-293T cell viability reduction – luminescence, B-cell screen hits, cytotoxicity control for BCR NF-kB inhibitor project, dose response (AID 489021); format: functional, cell-based;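 also: HEK-293T cells carrying an NF-kB luciferase reporter; cells exposed to compound for about 14 hours before viability readout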
[7] = THP-1 cell cytotoxicity, dose response, cytotoxicity control for non-replicating M. tuberculosis project (AID 489025); format: functional
[8] = Luminescence Cell-Based Dose Response HTS to Identify Inhibitors of 5'UTR Stem-Loop Driven Prion Protein mRNA Translation in H4 Neuroglioblastoma Cells. [Related pubchem assays: 1827 (Project Summary), 1813 (Primary HTS)]; format: functional
[9] = alpha-synuclein stem-loop luciferase translation blockers – H4 neuroglioma cells, luminescence, confirmation (AID 1988); format: functional, cell-based
[10] = Trypanosoma cruzi growth suppression in host cells – NIH3T3 host cells, beta-gal luminescence, confirmation (AID 2044); format: functional, cell-based;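 also: intracellular parasites grown in NIH/3T3 mouse fibroblasts as host cells; luminescent beta-galactosidase reporter signal from transgenic T. cruzi replicating inside host cells; inhibitors lower the luminescence signal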
cells = format: functional
[11] = Vero E6 cell cytotoxicity, dose response, cytotoxicity control for non-replicating M. tuberculosis project, secondary assay (AID 492998); format: functional, VeroE6; conditions: Vero C1008
[12] = HepG2 cell cytotoxicity, dose response, cytotoxicity control for non-replicating M. tuberculosis project (AID 489018); format: functional; conditions: Mycobacterium tuberculosis
[13] = luciferase reporter signal suppression in cells – H4 neuroglioma cells, luminescence, dose response (AID 1990); format: functional, cell-based
Fatty acid synthase [14] = molecular target: T3, Fatty acid synthase; assay: inhibition of human FAS-TE enzyme activity – biochemical, endpoint fluorescence intensity, uHTS hits, dose response (AID 624327); format: functional;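 also: fluorescence from hydrolysis of an O-methyl fluorescein acyl ester substrate by the enzyme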
[15] = molecular target: T4, Endoribonuclease toxin MazF (Escherichia coli K-12, UniProt P0AE70); assay: activation of MazEF endoribonuclease cleavage – biochemical, fluorescence, single-stranded RNA substrate, uHTS hits, dose response (AID 588481); format: functional
T4 sequence (P0AE70 whole entry): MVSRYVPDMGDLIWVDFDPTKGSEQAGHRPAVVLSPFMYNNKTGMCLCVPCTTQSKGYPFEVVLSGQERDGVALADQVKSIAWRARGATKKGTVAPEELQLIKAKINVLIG

[16] = Luminescence Cell-Based Dose Confirmation HTS to Identify Inhibitors of Platelet Dense Granule Release. [Related pubchem assays: 1663 (Primary HTS), 1678 (Summary of Project)]; format: functional
[17] = molecular target: T4, Endoribonuclease toxin MazF; assay: substrate-only fluorescence increase artefacts – biochemical, single-stranded RNase substrate, counter-screen for MazEF activator project, dose response (AID 588502); format: functional
[18] = molecular target: T5, Luciferin 4-monooxygenase (Photinus pyralis, UniProt P08659); assay: inhibition of purified Photinus pyralis luciferase – biochemical, luminescence, dose response (AID 1891)
HT-1080 = assay: HT1080 cell viability loss – fluorescence readout (AID 620); format: functional, cell-based; conditions: Homo sapiens
[19] = molecular target: T6, Microphthalmia-associated transcription factor (Homo sapiens, UniProt O75030); assay: reducers of TRPM1 reporter luminescence, concentration series – cell-based, SK-MEL-5, cherry-picked, set 3, MITF inhibitor project, dose response (AID 493073); format: functional;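 also: SK-MEL-5 melanoma cells with luciferase driven by the MITF target TRPM1 promoter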
T6 sequence (O75030 whole entry): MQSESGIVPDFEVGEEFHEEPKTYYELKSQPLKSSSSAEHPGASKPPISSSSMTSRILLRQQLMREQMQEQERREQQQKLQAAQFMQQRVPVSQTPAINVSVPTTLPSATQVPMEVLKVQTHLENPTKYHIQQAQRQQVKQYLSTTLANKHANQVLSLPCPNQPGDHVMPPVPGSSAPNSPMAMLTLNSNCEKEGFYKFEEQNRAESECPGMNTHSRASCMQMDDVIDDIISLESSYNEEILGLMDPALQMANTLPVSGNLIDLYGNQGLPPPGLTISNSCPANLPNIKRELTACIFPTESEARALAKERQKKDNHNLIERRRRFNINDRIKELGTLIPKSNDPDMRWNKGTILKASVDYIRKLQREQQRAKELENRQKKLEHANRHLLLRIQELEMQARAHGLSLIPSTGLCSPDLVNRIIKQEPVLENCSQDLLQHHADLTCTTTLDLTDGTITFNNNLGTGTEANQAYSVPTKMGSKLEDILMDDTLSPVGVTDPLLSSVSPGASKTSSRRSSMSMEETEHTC

[20] = molecular target: T5, Luciferin 4-monooxygenase; assay: Counter Screen for Luciferase-based Assay Positives. [Related pubchem assays: 620, 618, 411 ]
[21] = molecular target: T7, Polyadenylate-binding protein 1 (Homo sapiens, UniProt P11940); assay: MLLE domain peptide-binding blockers, IC50 – biochemical, fluorescence polarization, FITC-PAM2 peptide, dose response (AID 602259); format: functional; conditions: read-out: IC50_Mean
[22] = molecular target: T7, Polyadenylate-binding protein 1; assay: MLLE binding blockers, Cy5 peptide tracer – biochemical, fluorescence polarization, Cy5-PAM2 peptide, secondary, miRNA deadenylation inhibitor project, dose response (AID 602260); format: functional; conditions: read-out: IC50_Mean
Cytochrome P450 3A4 = Cytochrome P450 3A4 (Homo sapiens, UniProt P08684); conditions: Potency;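 also: confirmatory qHTS run detecting inhibitors and substrates of CYP3A4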

Chain of Voltage-gated inwardly rectifying potassium channel KCNH2 (Q12809 whole entry): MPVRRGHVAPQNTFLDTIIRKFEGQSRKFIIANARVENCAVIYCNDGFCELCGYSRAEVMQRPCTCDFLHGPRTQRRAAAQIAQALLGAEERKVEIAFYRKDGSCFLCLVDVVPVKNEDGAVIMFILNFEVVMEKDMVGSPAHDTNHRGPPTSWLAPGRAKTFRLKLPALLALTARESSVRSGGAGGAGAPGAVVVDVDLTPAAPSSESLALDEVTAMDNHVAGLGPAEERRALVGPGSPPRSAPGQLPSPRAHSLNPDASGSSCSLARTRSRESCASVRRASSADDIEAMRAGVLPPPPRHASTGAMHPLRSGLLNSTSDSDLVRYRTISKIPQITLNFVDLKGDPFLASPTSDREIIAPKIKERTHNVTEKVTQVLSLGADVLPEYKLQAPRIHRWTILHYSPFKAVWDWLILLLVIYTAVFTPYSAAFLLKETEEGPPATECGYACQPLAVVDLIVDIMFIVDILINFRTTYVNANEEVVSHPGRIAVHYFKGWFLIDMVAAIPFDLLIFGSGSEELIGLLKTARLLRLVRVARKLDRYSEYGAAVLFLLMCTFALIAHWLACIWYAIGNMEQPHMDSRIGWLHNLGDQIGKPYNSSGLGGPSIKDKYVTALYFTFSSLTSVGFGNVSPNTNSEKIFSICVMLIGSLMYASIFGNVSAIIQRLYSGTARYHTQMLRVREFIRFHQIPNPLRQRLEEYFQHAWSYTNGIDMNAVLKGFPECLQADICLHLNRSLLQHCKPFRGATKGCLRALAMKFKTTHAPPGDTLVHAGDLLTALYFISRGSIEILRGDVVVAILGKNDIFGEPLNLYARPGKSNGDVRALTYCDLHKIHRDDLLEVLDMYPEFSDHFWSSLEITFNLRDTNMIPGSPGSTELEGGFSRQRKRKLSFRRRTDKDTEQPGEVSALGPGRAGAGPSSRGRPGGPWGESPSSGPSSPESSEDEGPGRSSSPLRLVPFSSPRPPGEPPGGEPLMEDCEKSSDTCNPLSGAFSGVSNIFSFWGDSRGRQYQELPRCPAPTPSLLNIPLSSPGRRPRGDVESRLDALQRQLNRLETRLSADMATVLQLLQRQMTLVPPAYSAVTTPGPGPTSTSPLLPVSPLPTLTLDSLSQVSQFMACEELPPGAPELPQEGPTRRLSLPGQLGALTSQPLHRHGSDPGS
T5 sequence (P08659 whole entry): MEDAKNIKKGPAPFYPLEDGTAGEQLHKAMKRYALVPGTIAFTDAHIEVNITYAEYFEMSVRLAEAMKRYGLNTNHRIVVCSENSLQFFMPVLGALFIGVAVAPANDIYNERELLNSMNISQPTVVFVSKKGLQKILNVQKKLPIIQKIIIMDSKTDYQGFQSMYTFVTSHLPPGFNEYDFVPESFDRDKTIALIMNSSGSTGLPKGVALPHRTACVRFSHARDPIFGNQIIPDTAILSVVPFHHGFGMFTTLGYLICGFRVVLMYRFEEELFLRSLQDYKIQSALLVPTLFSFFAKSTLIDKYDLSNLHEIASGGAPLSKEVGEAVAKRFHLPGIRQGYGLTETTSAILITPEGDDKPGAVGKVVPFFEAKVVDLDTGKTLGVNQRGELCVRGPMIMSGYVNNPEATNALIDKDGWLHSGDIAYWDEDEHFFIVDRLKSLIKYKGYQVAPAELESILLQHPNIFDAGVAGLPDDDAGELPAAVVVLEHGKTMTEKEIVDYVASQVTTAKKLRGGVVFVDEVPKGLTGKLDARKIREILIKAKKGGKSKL
T7 sequence (P11940 whole entry, the tested form may be a part): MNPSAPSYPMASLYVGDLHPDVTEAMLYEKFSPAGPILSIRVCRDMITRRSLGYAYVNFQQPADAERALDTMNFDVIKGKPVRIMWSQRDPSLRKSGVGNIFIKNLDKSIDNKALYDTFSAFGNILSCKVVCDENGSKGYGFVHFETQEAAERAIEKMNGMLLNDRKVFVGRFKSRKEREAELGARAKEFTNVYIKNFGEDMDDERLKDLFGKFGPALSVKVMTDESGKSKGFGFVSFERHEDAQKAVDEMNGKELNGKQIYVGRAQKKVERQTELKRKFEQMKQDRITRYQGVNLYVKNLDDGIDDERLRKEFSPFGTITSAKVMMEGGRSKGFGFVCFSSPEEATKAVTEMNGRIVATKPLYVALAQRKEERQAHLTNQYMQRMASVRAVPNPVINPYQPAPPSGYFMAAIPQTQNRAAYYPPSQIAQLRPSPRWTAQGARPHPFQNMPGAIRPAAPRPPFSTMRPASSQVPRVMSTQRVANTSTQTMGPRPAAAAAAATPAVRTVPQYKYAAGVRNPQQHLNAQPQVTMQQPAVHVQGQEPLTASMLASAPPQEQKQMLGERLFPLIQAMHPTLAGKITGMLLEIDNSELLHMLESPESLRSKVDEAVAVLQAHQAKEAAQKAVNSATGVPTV
T3 sequence (P49327 whole entry): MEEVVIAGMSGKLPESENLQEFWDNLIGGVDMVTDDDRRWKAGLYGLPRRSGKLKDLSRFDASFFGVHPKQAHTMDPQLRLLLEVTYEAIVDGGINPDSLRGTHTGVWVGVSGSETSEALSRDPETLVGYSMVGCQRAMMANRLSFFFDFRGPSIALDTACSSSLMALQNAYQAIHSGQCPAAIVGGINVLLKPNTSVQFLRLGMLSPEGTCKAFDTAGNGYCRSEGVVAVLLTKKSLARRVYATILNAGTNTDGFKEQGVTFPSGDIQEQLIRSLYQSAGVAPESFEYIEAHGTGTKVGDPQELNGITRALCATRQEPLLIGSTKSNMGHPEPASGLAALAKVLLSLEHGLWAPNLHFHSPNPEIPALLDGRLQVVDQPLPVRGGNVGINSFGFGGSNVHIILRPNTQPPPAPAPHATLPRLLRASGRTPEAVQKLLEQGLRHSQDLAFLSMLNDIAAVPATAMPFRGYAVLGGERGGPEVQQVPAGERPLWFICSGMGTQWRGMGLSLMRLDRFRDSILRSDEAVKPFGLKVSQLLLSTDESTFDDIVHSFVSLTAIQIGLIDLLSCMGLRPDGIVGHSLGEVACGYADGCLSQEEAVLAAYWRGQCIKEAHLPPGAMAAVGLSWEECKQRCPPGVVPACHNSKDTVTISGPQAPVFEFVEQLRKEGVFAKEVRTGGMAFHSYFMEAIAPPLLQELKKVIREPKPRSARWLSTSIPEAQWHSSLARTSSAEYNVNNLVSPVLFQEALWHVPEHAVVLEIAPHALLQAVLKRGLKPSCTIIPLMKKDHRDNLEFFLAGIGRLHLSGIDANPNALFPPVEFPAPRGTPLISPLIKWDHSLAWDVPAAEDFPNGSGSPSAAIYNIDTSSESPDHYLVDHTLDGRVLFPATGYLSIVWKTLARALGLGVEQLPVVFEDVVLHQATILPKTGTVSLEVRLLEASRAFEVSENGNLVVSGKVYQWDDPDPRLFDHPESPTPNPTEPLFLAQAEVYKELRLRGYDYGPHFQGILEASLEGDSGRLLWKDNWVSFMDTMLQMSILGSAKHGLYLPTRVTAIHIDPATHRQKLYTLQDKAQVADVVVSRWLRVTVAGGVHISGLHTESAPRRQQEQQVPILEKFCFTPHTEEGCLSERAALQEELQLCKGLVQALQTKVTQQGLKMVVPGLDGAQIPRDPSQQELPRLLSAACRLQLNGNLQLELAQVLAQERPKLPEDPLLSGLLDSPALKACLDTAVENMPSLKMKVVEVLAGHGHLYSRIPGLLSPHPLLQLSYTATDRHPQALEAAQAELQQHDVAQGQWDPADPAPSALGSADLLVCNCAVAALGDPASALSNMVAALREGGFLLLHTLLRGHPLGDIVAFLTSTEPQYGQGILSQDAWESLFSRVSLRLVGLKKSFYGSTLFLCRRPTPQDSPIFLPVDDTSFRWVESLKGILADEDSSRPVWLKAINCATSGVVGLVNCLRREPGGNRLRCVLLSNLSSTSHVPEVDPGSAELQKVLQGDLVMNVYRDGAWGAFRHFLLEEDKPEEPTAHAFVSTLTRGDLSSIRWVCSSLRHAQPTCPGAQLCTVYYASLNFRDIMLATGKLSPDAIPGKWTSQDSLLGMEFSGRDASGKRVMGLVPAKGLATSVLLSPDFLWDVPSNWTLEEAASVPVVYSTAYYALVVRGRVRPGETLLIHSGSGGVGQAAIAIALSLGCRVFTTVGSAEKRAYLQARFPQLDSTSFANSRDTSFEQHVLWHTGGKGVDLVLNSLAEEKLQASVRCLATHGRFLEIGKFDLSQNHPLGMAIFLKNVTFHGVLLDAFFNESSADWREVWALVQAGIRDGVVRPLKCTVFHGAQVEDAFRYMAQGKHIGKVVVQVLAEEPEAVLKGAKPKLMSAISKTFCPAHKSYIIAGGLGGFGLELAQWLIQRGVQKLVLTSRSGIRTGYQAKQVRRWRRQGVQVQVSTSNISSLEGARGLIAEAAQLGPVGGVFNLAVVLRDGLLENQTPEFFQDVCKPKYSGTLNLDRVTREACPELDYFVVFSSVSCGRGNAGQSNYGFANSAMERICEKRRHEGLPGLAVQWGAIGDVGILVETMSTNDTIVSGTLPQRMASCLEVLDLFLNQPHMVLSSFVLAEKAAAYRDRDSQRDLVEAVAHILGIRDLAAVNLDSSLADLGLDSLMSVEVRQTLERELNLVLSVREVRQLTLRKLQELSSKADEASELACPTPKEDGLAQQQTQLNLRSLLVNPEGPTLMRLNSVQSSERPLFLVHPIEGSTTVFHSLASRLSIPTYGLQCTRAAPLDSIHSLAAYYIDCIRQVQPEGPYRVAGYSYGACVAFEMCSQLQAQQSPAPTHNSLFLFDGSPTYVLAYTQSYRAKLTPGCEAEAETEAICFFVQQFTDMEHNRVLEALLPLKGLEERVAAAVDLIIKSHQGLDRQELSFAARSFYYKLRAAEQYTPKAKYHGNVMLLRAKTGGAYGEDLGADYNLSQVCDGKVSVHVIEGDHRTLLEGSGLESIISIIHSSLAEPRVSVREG

CC(C)N=C=NC(C)C
AC50 [1]: 35.5 µM (inconclusive)

O=C(CN1CCN(c2ccccc2F)CC1)Nc1cccnc1Cl
EC50 (Troponin, cardiac muscle): > 71.5 µM (inactive)

Cc1ccc(-c2csc3nc4cc(C(=O)NC5CCC(O)CC5)ccc4c(=O)n23)cc1 (centres undefined)
AC50 [2]: 3.96 µM (active)

CC1(c2ccc(Cl)cc2Cl)OCC(Cn2ccnc2)O1 (centres undefined)
EC50 [3]: 2.37 µM (active)

O=C(Nc1ccccc1C(=O)Nc1nnc(C(F)(F)F)s1)c1ccccc1
EC50 [4]: 2.53 µM (active)
IC50 (Fatty acid synthase [5]): 23.5 µM (inactive)
IC50 [6]: 46.2 µM (inactive)
CC50 [7]: 3.58 µM (active)
EC50 [8]: > 120 µM (not active)
EC50 [9]: 19.3 µM (active)
EC50 [10]: 0.927 µM (active)
IC50 (cells): 15.3 µM (active)
CC50 [11]: > 20 µM (active)
CC50 [12]: 3.9 µM (active)
EC50 [13]: > 120 µM (not active)
IC50 (Fatty acid synthase [14]): 80 µM (inactive)

Cc1c(Cl)cccc1NC(S)=NCC(c1cccnc1)N(C)C (centres undefined)
EC50 [3]: 0.0013 µM (active)

O=C(NCc1ccccn1)c1cn(Cc2ccccc2)nn1
AC50 [2]: > 60 µM (inactive)

CN(C)C(CNC(=O)c1ccc2[nH]cnc2c1)c1ccccc1 (centres undefined)
EC50 [3]: 0.473 µM (active)

O=C(N=CNOCc1ccc(Cl)cc1Cl)NOCc1c(Cl)cccc1Cl
EC50 [15]: > 99 µM (inactive)
EC50 [16]: > 112 µM (not active)
EC50 [17]: > 99 µM (inactive)
EC50 [18]: > 112 µM (not active)

Cc1ccnc(N/C=C(\C#N)c2nc(-c3cccc(Br)c3)cs2)c1
EC50 (Troponin, cardiac muscle): 0.761 µM (active)

CCOC(=O)/C(=C/C=C1\Sc2cc(OCC)c(OCC)cc2N1CC)C(C)=O
EC50 (Troponin, cardiac muscle): 0.165 µM (active)

CCc1ccc(-c2cc(C(=O)Nn3cnnc3)c3ccccc3n2)cc1
EC50 (HT-1080): > 50 µM (not active)
AC50 [19]: 12.5 µM (active)
EC50 [20]: 2.73 µM (active)

C[C@H](CO)N1C[C@H](C)[C@@H](CN(C)Cc2ccc3c(c2)OCO3)Oc2c(NC(=O)C3CCCCC3)cccc2C1=O
AC50 [2]: 13.1 µM (active)

CCOc1ccc(/N=C/C=C(/O)c2ccc(OC)cc2)c([N+](=O)[O-])c1
EC50 [15]: > 99 µM (inactive)
IC50 [21]: > 66 µM (inactive)
IC50 [22]: > 66 µM (inactive)
EC50 [17]: 6.29 µM (active)

CCC(C)C(N)C1=NC(C(=O)N[C@@H](CC(C)C)C(=O)N[C@H](CCC(=O)O)C(=O)N[C@H](C(=O)N[C@H]2CCCCNC(=O)[C@H](CC(N)=O)NC(=O)[C@@H](CC(=O)O)NC(=O)[C@H](Cc3c[nH]cn3)NC(=O)[C@@H](Cc3ccccc3)NC(=O)[C@H]([C@@H](C)CC)NC(=O)[C@@H](CCCN)NC2=O)[C@@H](C)CC)CS1 (some centres undefined) (X1-L[dE]IK[dOrn]I[dF]H[dD]N; lactam 4-C)
EC50 [15]: 30.8 µM (inactive)
EC50 [17]: 4.71 µM (active)

COc1cc(CNC(=O)CCCCCCC(C)C)ccc1O [DIHYDROCAPSAICIN]
AC50 [1]: 35.5 µM (inconclusive)

CNC(=O)OCC[N+](C)(C)C [METHYLCARBAMYLCHOLINE CHLORIDE]
AC50 [1]: 35.5 µM (inconclusive)

CCCN(CCC)c1c([N+](=O)[O-])cc(C(F)(F)F)cc1[N+](=O)[O-] [TRIFLURALIN]
AC50 [1]: 14.1 µM (inconclusive)
AC50 (Cytochrome P450 3A4): 15.8 µM (inconclusive)
